Laboratory results as given in patent publication US6908915B1, “Tricyclic compounds and their uses as antiarrhythmic antifibrillatory and defibrillatory agents” (Technion Research & Development Foundation Ltd., priority 2000, dated 2005).

Test system: artificially induced SVF
Experiment: Transformation of electrically induced SVF to TVF in anesthetized cats (antiarrhythmic defibrillating activity)
Format: in vivo
Conditions: intravenous, VF type examined before and 2 to 3 min after drug; for Relative activity in dosage of 1 mg/kg: monohydrochloride
Experimental: 10,11-dihydro-5-[(3-N-alkyl)1-oxopropyl] 5-H-dibenzo[b,f]azepin monohydrochloride, 10,11-dihydro-5-[N-? isopropylamino-2propanol)] 5-H-dibenzo [b,f]azepin monohydrochloride and 11-Oxo-10,11-dihydro-5-[(N-alkyl)1-oxopropyl]-5-H-dibenzo [b,e] [1,4] diazepin hydrochloride were synthesized as is described hereinabove and tested for their effectiveness in transforming SVF to TVF, as described herein. […] The experimental method was as follows.
Hydrochloride salts of the compounds were dissolved in saline. Activity of each compound was tested in cats of both sexes. Cats were anesthetized with 15-25 mg/kg intravenous sodium, pentobarbital. The tested compounds were injected intravenously (1-3 mg/kg). The heart of each experimental subject was exposed through midline thoracotomy, and a room air respirator was applied through a tracheal cannula. Lead II electrocardiogram and intra-arterial blood pressure was recorded on a Grass Polygraph (Grass Instrument Co., Quincy, Mass., USA).
Fibrillating stimuli (a train of rectangular pulses of 2 to 15 V, 100 pulses/sec and duration of 0.1 to 1.0 msec, for a period of 1 sec) were delivered through two silver needle electrodes attached to the pericardium on the left ventricle. Fibrillating stimuli were one and a half to twice the strength of the fibrillating threshold.
VF was induced before and after drug administration, according to a previously described procedure. The type of VF was examined before and 2 to 3 min after drug treatment. Each cat served as its own control. In some experiments, a β-adrenergic blocker (propranolol, 0.1-0.6 mg/kg) was administered after drug administration, in order to evaluate the neutralizing effect of the blocker on the compound-induced catecholamine levels. Table l below presents the results.

SMILES	Relative activity in dosage of 1 mg/kg	Relative activity in dosage of 2 mg/kg
CC(C)NCC(O)CN1c2ccccc2CCc2ccccc21.Cl (stereo not drawn) [Compound 25bi]	100%	100%
CC(C)NCC(O)CN1c2ccccc2CCc2ccccc21.Cl (stereo not drawn) [Compound 25bir]	50%	100%
CC(C)NCC(O)CN1c2ccccc2CCc2ccccc21.Cl (stereo not drawn) [Compound 25bis]	100%	100%
